# Test results as given in article PMC2785468, “Androgen Receptor Mutations Associated with Androgen Insensitivity Syndrome: A High Content Analysis Approach Leading to Personalized Medicine” (PLoS ONE, 2009).
# Target: T1, AR-F764L (Homo sapiens, UniProt P10275, F765L)
# T1 construct: expressed in transfected cells
# T1 sequence (P10275 1-920 F765L): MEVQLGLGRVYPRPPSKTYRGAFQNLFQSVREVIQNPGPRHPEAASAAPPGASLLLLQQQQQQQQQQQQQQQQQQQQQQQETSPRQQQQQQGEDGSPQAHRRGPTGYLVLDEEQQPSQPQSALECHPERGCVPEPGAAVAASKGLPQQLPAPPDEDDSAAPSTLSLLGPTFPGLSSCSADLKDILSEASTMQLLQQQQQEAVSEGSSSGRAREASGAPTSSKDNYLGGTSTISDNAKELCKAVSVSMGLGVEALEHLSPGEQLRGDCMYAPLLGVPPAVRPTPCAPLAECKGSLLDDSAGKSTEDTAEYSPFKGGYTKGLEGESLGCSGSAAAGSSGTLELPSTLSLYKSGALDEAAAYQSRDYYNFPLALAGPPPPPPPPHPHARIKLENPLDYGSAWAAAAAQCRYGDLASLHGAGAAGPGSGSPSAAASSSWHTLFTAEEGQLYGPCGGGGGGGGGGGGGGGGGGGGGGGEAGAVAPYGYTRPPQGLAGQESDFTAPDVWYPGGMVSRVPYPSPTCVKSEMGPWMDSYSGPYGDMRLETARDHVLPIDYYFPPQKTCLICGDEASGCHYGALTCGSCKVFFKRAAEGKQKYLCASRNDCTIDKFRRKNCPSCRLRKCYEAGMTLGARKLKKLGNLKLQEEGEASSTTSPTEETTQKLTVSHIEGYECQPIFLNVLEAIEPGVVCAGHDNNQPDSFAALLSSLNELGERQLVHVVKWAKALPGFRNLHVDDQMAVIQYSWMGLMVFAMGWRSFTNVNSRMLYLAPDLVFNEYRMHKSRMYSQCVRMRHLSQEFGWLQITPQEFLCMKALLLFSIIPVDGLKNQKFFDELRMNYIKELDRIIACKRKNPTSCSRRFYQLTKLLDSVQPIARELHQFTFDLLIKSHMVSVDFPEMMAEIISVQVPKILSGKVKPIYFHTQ
# Assay type: cell-based
# Protocol: To determine the global effect of the various AIS mutations on AR signaling, each was analyzed using HCA. This technology allows simultaneous quantification of AR protein expression, nuclear translocation, subnuclear patterning, and transcriptional activity. The analysis was done in HeLa cell lines stably transfected with wild type or mutant ARs fused with green fluorescent protein, or using AR immunofluorescence in primary cultures of genital skin fibroblasts generated from foreskin biopsies of historical AIS patients, or of normal neonates undergoing circumcision at birth. To prevent the effects of receptor over-expression, stable HeLa cells were carefully selected to express AR levels similar to LNCaP as previously described. Prior to ligand treatment, HeLa cells were transfected with the pARR2PB-dsRED2skl reporter plasmid, consisting of the AR responsive promoter ARR2PB [31] driving expression of the red fluorescent protein reporter dsRED2skl engineered to target peroxisomes.
# For studies utilizing HeLa GFP-AR cell lines, twenty-four hours before transfection with pARR2PB-dsRED2skl, cells were plated onto 100 mm plastic dishes in medium supplemented with 5% charcoal-stripped and dialyzed-FBS. Transient introduction of the pARR-2PB-dsRED2skl reporter construct was performed using 6.0 µg reporter plasmid and 6.0 µg carrier DNA (BlueScript, Stratagene, San Diego, CA) using Transfectin (Biorad) following standard protocols. After 8-hour incubation, DNA/lipid complexes were removed. Cells were then trypsinized and replated at 10,000 cells per well in Nunc poly-D-lysine treated 96-well optical glass bottom plates and incubated an additional 12 hours to allow for cell adhesion. […] Compound dilutions and final addition to multi-well plates were performed using a Beckman Biomek NX robotic platform to ensure repeatability from experiment to experiment. After incubation was complete, using the Biomek NX robot, plates were washed with PBS and fixed for 20 min at RT in 4% formaldehyde prepared in CSK buffer (80 mM potassium PIPES, pH 6.8, 5 mM EGTA, 2 mM MgCl2). After fixation, cells were briefly permeabilized (5 min) with 0.5% Triton-X and prepared for imaging by washing in PBS, aspirating the washed solution, and adding a 1 ng/ml DAPI solution to stain DNA and a generic protein stain (CellMask, Invitrogen) to facilitate cell and nuclear image segmentation. Cells were imaged in PBS.
# Cells were imaged using the Cell Lab IC-100 Image Cytometer (IC-100; Beckman Coulter) platform that consists of 1) Nikon Eclipse TE2000-U Inverted Microscope (Nikon; Melville, NY); 2) Chroma 82000 triple band filter set (Chroma; Brattleboro, VT); 3) an imaging camera: Hamamatsu ORCA-ER Digital CCD camera (Hamamatsu; Bridgewater, NJ); and 4) a focusing camera: Photonics COHU Progressive scan camera (Photonics; Oxford, MA). […] In general, 49 to 64 images were captured per well for image analysis.
# While our initial AR studies using HTM were based upon CytoShop (Beckman-Coulter), [15], [33], these approaches were refined in the current work with the more robust server-client Pipeline Pilot image analysis platform (Basic and Advanced Imagine Collections, Pipeline Pilot 7.5, Accelrys, San Diego). Initially, the background signal was removed from all images using plate- and channel-specific correction images, generated by the sum projection of >600 randomly selected images for each channel from the image set. This allows for a pixel-by-pixel background subtraction that compensates any consistent uneven background artifacts in the image set. Furthermore, users are able to customize the degree of background subtraction by applying a multiplier to each correction image, useful for identification of objects such as nuclei or cell borders. After background subtraction, nuclear masks were generated using a combination of non-linear least squares and watershed-from-markers image manipulations of the DAPI images (Fig. 1B).
smiles,measurement,setting,value
"C[C@@H]1CC2=CC(=O)CC[C@@H]2[C@H]2CC[C@@]3(C)[C@@H](CC[C@]3(C)O)[C@@H]21 [Mb, Mibolerone]","recovery of AR-F764 activity, % of control","AR-F764L, discussion, test not specified",45%
same,hyperspeckling response,HeLa AR-F764L,132 fold increase
same,induction of transcriptional activity,HeLa AR-F764L,36 fold
same,increase in the percent of nuclear GFP signal,"HeLa AR-F764L, vs untreated",31%
same,"Nuclear Translocation, Max","HeLa F764L, % signal present in the nucleus",73.2±0.8%
same,"Hyperspeckling, Max","HeLa F764L, absolute numerical measurement",965±8
same,"Transcriptional Activity, Max","HeLa F764L, pARR2PB-dsRED2skl reporter, absolute numerical measurement",92.9±2.2
